Biological target: T1, All2699g1g2 (g1g2) (Nostoc sp. PCC 7120 = FACHB-418, UniProt A0ACD6B963)
T1 construct: gene all2699; GAF1-GAF2 (GAF-PHY) photosensory module of All2699; borders, tags and host not in main text
Experiment: steady-state absorption, CD and femtosecond transient absorption of the chromophore-bound protein
Type: binding
Conditions: covalent (known biology, not given); chromophore embedded in GAF1 domain; Pr and Pfr states

T1 sequence (A0ACD6B963 1-656 limits assumed): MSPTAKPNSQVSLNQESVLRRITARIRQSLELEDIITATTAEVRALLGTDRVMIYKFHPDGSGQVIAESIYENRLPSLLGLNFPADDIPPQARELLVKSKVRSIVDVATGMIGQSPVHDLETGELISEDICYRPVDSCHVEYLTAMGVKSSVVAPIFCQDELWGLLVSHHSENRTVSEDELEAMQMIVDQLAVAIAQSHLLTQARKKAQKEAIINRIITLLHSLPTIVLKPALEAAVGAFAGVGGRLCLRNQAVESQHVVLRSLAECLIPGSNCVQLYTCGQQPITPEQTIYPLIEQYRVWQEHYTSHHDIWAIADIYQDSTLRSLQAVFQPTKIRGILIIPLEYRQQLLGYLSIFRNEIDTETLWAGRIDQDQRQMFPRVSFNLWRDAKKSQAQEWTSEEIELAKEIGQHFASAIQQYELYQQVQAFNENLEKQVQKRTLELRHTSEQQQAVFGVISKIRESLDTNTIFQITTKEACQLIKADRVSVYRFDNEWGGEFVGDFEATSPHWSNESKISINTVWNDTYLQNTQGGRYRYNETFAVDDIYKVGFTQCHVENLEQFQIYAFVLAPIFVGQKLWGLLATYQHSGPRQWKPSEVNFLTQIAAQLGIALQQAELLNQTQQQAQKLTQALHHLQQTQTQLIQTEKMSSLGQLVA

Structure (SMILES): C/C=C1/C(=C/C2=NC(=C\c3[nH]c(/C=C4\NC(=O)C(CC)=C4C)c(C)c3CCC(=O)O)/C(CCC(=O)O)=C2C)NC(=O)[C@@H]1C [PCB, phycocyanobilin]
- steady-state absorption, CD and femtosecond transient absorption of the chromoph: interactions of the PCB chromophore with the “tongue” region of the g2 domain in g1g2

Source: PMC7839672, “Effect of the PHY Domain on the Photoisomerization Step of the Forward Pr→Pfr Conversion of a Knotless Phytochrome” (Chemistry (Weinheim an Der Bergstrasse, Germany), 2020)
